Measured values published in US20230104283A1, “JNK INHIBITOR, AND PHARMACEUTICAL COMPOSITION AND USE THEREOF” (WUHAN LL SCIENCE AND TECHNOLOGY DEVELOPMENT CO. , LTD, priority 2019, published 2023).

How the values were obtained:
[1] = target: T1, JNK1 kinase (Homo sapiens, UniProt P45983); assay: JNK1 activity screening (time-resolved fluorometric HTRF kinase assay); assay type: biochemical; conditions: enzymatic assay, activity level
T1 construct: purchased Carna Biosciences 04-163
Experimental: JNK1 activity screening. JNK1 activity was detected using a 96-well (Cisbio, 66PL96025) time-resolved fluorometric assay. The JNK1 assay was conducted in the following assay buffer: 10 mM MgCl2 (Sigma, M1028), 1 mM MnCl2 (Sigma, M1787), 1 mM DTT (Sigma, D0632) and 1× Enzymatic buffer/kinase (Cisbio, 62EZBFDC). By using the assay buffer, 3 μL of 0.1 ng/μL JNK1 kinase (Carna Biosciences, 04-163) was added to a 96-well microplate, and then 4 μL of a compound diluted appropriately (with a DMSO content of 2.5%) was added. The resulting mixture was incubated at room temperature for 0.5 h. To start the reaction, the assay buffer was used to mix 0.003 μM ATP (Aladdin, A7699) and 30 μM substrate ATF2-GST fusion (Cisbio, 64CUS000AFPEB), and 3 μL of the mixed solution was added to the microplate. The resulting mixture was incubated at room temperature for 2.5 h. HTRF detection buffer ([…], 62SDBRDD) was used then to prepare a mixture of 5 μg/mL MAb Anti GST-XL665 (Cisbio, 61GSTXLA) and 0.045 μg/mL PAb Anti-phospho ATF2-K (Cisbio, 61P12KAZ), and 10 μL of the mixture was added to the plate to terminate the reaction. After incubation for about 12 h, the plate was read on a Perkin-Elmer Envision reader.

[2] = test system: RAW264.7 phosphorylated c-Jun (Ser63); assay: RAW264.7 phosphorylated c-Jun whole cell assay; assay type: cell-based; conditions: Mus musculus; cytological assay, activity level; lipopolysaccharide-activated RAW264.7 cells, phospho-c-Jun (Ser63) ELISA
Experimental: RAW264.7 (ATCC TIB-71) cells were purchased from BeNa Culture Collection and maintained in a high-glucose DMEM medium (Gibco) containing 10% fetal bovine serum (Gibco) and 1% penicillin-streptomycin (Gibco). All cells were cultured at 37° C. in 95% air and 5% CO2. All cells were seeded into 120 μL of cell culture medium in a 96-well plate at a density of 2×10^5 cells per well. The stock solution of compound (15 mM) was serially diluted in DMSO (Sigma) and further diluted in growth medium, and it was then added at 15 μL per well as a 10× concentrated solution, well mixed with the cells and incubated with the cells for 30 min. Concentration of the compound vehicle (DMSO) in each well was 0.2%. After incubation for 30 min, the cells were activated with […] lipopolysaccharide (Sigma). Lipopolysaccharide was added to the growth medium as a 10× concentrated solution at 15 μL per well. The cell plate was incubated for 1 h, and then all the medium was removed. The level of C-Jun protein with phosphorylation of serine at site 63 was measured using the whole cell lysate kit-phosphorylated C-Jun assay (PathScan® Phospho-c-Jun (Ser63) Sandwich ELISA Kit) (CST, 7145C) according to the manufacturer's instructions.

T1 sequence (P45983 whole entry): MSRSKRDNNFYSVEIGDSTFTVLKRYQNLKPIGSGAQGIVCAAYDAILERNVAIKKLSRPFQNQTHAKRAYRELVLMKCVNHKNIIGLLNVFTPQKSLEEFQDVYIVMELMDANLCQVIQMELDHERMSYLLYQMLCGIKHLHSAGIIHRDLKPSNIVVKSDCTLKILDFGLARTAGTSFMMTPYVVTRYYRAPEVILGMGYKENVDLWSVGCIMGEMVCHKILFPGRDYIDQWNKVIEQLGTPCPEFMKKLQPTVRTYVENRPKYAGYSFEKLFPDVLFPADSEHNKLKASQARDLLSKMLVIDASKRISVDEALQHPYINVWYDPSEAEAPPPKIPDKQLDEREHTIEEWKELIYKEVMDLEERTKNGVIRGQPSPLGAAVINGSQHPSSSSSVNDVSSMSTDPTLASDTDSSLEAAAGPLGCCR

C[C@@H]1CC[C@@H](Nc2nc(NC(C)(C)C)ncc2C(N)=S)C[C@H]1O [Compound T001, 2-(tert-butylamino)-4-(((1R,3R,4R)-3-hydroxy-4-methylcyclohexyl)amino) pyrimidine-5-carbothioamide]
IC50 [1]: < 100 nM
IC50 [2]: 100 to 500 nM

C[C@@H]1CC[C@@H](Nc2nc(NC(C)(C)C)ncc2C#N)C[C@H]1O [Compound T001A, 2-(tert-butylamino)-4-(((1R,3R,4R)-3-hydroxy-4-methylcyclohexyl)amino) pyrimidine-5-carbonitrile]
IC50 [1]: 100 to 500 nM
IC50 [2]: 100 to 500 nM

C[C@@H]1CC[C@@H](Nc2nc(NC(C)(C)C)ncc2/C(N)=N\O)C[C@H]1O [Compound T002, (E)-2-(tert-butylamino)-N′-hydroxy-4-(((1R,3R,4R)-3-hydroxy-4-methylcyclohexyl)amino)pyrimidine-5-carboximidamide]
IC50 [1]: < 100 nM
IC50 [2]: 100 to 500 nM

C[C@@H]1CC[C@@H](Nc2nc(NC(C)(C)C)ncc2C(=N)N)C[C@H]1O [Compound T003, 2-(tert-butylamino)-4-(((1R,3R,4R)-3-hydroxy-4-methylcyclohexyl)amino) pyrimidine-5-carboximidamide]
IC50 [1]: 500 to 1000 nM
IC50 [2]: > 1000 nM

C[C@@H]1CC[C@@H](Nc2nc(Nn3cnnc3)ncc2C(N)=O)C[C@H]1O [Compound T004, 2-((4H-1,2,4-triazol-4-yl)amino)-4-(((1R, 3R,4R)-3-hydroxy-4-methylcyclohexyl)amino)pyrimidine-5-carboxamide]
IC50 [1]: > 1000 nM
IC50 [2]: > 1000 nM

C[C@@H]1CC[C@@H](Nc2nc(NC(C)(C)C)ncc2C(C)(C)O)C[C@H]1O [Compound T005, (1R,2R,5R)-5-((2-(tert-butylamino)-5-(2-hydroxypropan-2-yl)pyrimidin-4-yl)amino)-2-methylcyclohexan-1-ol]
IC50 [1]: > 1000 nM
IC50 [2]: > 1000 nM

COC(=O)c1cnc(NC(C)(C)C)nc1N[C@@H]1CC[C@@H](C)[C@H](O)C1 [Compound T005A, Methyl 2-(tert-butylamino)-4-(((IR,3R,4R)-3-hydroxy-4-methylcyclohexyl)amino) pyrimidine-5-carboxylate]
IC50 [1]: > 1000 nM
IC50 [2]: > 1000 nM

CC(C)(C)Nc1ncc(C(N)=O)c(N2CCC(O)CC2)n1 [Compound T006, 2-(tert-butylamino)-4-(4-hydroxypiperidin-l-yl)pyrimidine-5-carboxamide]
IC50 [1]: > 1000 nM
IC50 [2]: > 1000 nM

CC(C)(C)Nc1ncc(C(N)=O)c(NC2CCCN(C(=O)CC#N)C2)n1 (centres unmarked) [Compound T007, 2-(tert-butylamino)-4-((1-(2-cyanoacetyl)piperidin-3-yl)amino)pyrimidine-5-carboxamide]
IC50 [1]: > 1000 nM
IC50 [2]: > 1000 nM

CC(C)(C)Nc1ncc(C(N)=O)c(NC2CCCN(C(=O)CC(=O)O)C2)n1 (stereo not drawn) [Compound T008, 3-(3-((2-(tert-butylamino)-5-carbamoylpyrimidin-4-yl)amino)piperidin-l-yl)-3-oxopropanoic acid]
IC50 [1]: > 1000 nM
IC50 [2]: > 1000 nM

CC(C)(C)Nc1ncc(C(N)=O)c(NCC2CCC(=O)N2)n1 (centres unmarked) [Compound T009, 2-(tert-butylamino)-4-(((5-oxopyrrolidin-2-yl)methyl)amino)pyrimidine-5-carboxamide]
IC50 [1]: > 1000 nM
IC50 [2]: > 1000 nM

COc1ccc(Nc2ncc(C(N)=O)c(N[C@@H]3CC[C@@H](C)[C@H](O)C3)n2)cc1 [Compound T010, 4-(((1R,3R,4R)-3-hydroxy-4-methylcyclohexyl)amino)-2-((4-methoxyphenyl)amino) pyrimidine-5-carboxamide]
IC50 [1]: < 100 nM
IC50 [2]: < 100 nM

CC(C)(C)Nc1ncc(C(N)=O)c(Nc2cccc(C(=O)O)c2)n1 [Compound T011, 3-((2-(tert-butylamino)-5-carbamoylpyrimidin-4-yl)amino) benzoic acid]
IC50 [1]: 500 to 1000 nM
IC50 [2]: > 1000 nM

C[C@@H]1CC[C@@H](Nc2nc(NC(C)(C)C)ncc2F)C[C@H]1O [Compound T012, (1R,2R,5R)-5-((2-(tert-butylamino)-5-fluoropyrimidin-4-yl)amino)-2-methylcyclohexan-1-ol]
IC50 [1]: > 1000 nM
IC50 [2]: > 1000 nM

C[C@@H]1CC[C@@H](Nc2nc(NC(C)(C)C)ncc2Cl)C[C@H]1O [Compound T013, (1R,2R,5R)-5-((2-(tert-butylamino)-5-chloropyrimidin-4-yl)amino)-2-methylcyclohexan-1-ol]
IC50 [1]: 500 to 1000 nM
IC50 [2]: > 1000 nM

Cc1cnc(NC(C)(C)C)nc1N[C@@H]1CC[C@@H](C)[C@H](O)C1 [Compound T014, (1R,2R,5R)-5-((2-(tert-butylamino)-5-methylpyrimidin-4-yl)amino)-2-methylcyclohex-1-ol]
IC50 [1]: > 1000 nM
IC50 [2]: > 1000 nM

C[C@@H]1CC[C@@H](Nc2nc(NC3CC4(COC4)C3)ncc2C(N)=O)C[C@H]1O [Compound T015, 2-((2-oxaspiro[3.3]heptan-6-yl)amino)-4-(((1R,3R,4R)-3-hydroxy-4-methylcyclohexyl)amino)pyrimidine-5-carboxamide]
IC50 [1]: < 100 nM
IC50 [2]: 500 to 1000 nM

CC(C)(C)Nc1ncc(C(N)=O)c(NC2CCC(=O)NC2)n1 (centres unmarked) [Compound T016, 2-(tert-butylamino)-4-((6-oxopiperidin-3-yl)amino)pyrimidine-5-carboxamide]
IC50 [1]: < 100 nM
IC50 [2]: 500 to 1000 nM

CC(C)(C)Nc1ncc(C(N)=O)c(NC2CCC(=O)N(CCO)C2)n1 (stereo not drawn) [Compound T017, 2-(tert-butylamino)-4-((l-(2-hydroxyethyl)-6-oxopiperidin-3-yl)amino)pyrimidine-5-carboxamide]
IC50 [1]: < 100 nM
IC50 [2]: 500 to 1000 nM

CC(C)(C)Nc1ncc(C(N)=O)c(N2CCCC(CO)C2)n1 (centres unmarked) [Compound T018, 2-(tert-butylamino)-4-(3-(hydroxymethyl)piperidin-1-yl)pyrimidine-5-carboxamide]
IC50 [1]: 100 to 500 nM
IC50 [2]: 500 to 1000 nM

CC(C)(C)Nc1ncc(C(N)=O)c(N2CCC(CO)C2)n1 (centres unmarked) [Compound T019, 2-(tert-butylamino)-4-(3-(hydroxymethyl)pyrrolidin-1-yl)pyrimidine-5-carboxamide]
IC50 [1]: 100 to 500 nM
IC50 [2]: 500 to 1000 nM

CC(C)(C)Nc1ncc(C(N)=O)c(N2CC(C(C)(C)O)C2)n1 [Compound T020, 2-(tert-butylamino)-4-(3-(2-hydroxypropan-2-yl)azetidin-1-yl) pyrimidine-5-carboxamide]
IC50 [1]: 100 to 500 nM
IC50 [2]: 500 to 1000 nM

CC(C)(C)Nc1ncc(C(N)=O)c(NC2CCCN(C(N)=O)C2)n1 (centres unmarked) [Compound T021, 2-(tert-butylamino)-4-((1-carbamoylpiperidin-3-yl)amino) pyrimidine-5-carboxamide]
IC50 [1]: 100 to 500 nM
IC50 [2]: > 1000 nM

C[C@@H]1CC[C@@H](Nc2nc(N3CCOCC3)ncc2C(N)=O)C[C@H]1O [Compound T022, 4-(((1R,3R,4R)-3-hydroxy-4-methylcyclohexyl)amino)-2-morpholinopyrimidine-5-carboxamide]
IC50 [1]: 500 to 1000 nM
IC50 [2]: > 1000 nM

C[C@@H]1CC[C@@H](Nc2nc(N3CCNC(=O)C3)ncc2C(N)=O)C[C@H]1O [Compound T023, 4-(((1R,3R,4R)-3-hydroxy-4-methylcyclohexyl)amino)-2-(3-oxopiperazin-1-yl)pyrimidine-5-carboxamide]
IC50 [1]: 500 to 1000 nM
IC50 [2]: > 1000 nM

CCNC(=O)N1CCC(Nc2ncc(C(N)=O)c(N[C@@H]3CC[C@@H](C)[C@H](O)C3)n2)CC1 [Compound T024, 2-((l-(ethylcarbamoyl)piperidin-4-yl)amino)-4-(((1R,3R,4R)-3-hydroxy-4-methylcyclohexyl)amino)pyrimidine-5-carboxamide]
IC50 [1]: < 100 nM
IC50 [2]: 100 to 500 nM

CC(C)(C)Nc1ncc(C(N)=O)c(NC2CCCNC2)n1 (centres unmarked) [Compound T025, 2-(tert-butylamino)-4-(piperidin-3-ylamino)pyrimidine-5-carboxamide]
IC50 [1]: < 100 nM
IC50 [2]: > 1000 nM

CC(C)(C)Nc1ncc(C(N)=O)c(Nc2cccc(CO)c2)n1 [Compound T026, 2-(tert-butylamino)-4-((3-(hydroxymethyl)phenyl)amino)pyrimidine-5-carboxamide]
IC50 [1]: < 100 nM
IC50 [2]: 100 to 500 nM
